{"source": "ChEMBL document CHEMBL1154259", "about": "“Cell recognition enhanced enzyme hydrolysis of a model peptide-drug conjugate” (Bioorg Med Chem Lett, 2009)", "key": {"[1]": {"target": "T1, Papain (Carica papaya) (UniProt P00784)", "T1 sequence (whole entry)": "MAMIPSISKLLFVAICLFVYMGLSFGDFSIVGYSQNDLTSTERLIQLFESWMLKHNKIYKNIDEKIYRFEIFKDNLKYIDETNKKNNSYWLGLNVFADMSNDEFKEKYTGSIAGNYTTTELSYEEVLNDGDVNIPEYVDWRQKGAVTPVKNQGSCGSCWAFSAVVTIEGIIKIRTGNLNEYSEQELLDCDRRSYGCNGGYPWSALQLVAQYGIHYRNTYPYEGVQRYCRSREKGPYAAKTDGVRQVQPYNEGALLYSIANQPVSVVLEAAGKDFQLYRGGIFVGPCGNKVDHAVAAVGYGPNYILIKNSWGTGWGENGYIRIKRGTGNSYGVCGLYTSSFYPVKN", "experiment": "Activity at Carica papaya papain expressed in human A375 cells assessed as 7-amino-4-carbamoylmethylcoumarin release", "assay_type": "cell-based", "settings": "A-375"}, "[2]": {"target": "Integrin alpha-4/beta-1 (Homo sapiens) (UniProt P05556+P13612)", "experiment": "Binding affinity to human integrin alpha4beta1 expressed in human A375 cells by flow cytometry", "assay_type": "cell-based", "settings": "A-375"}}, "note": "Calls of active or inactive are those of the source. The calls are words filed in the database; no cut-off is given here. Where a SMILES comes first, the peptide text is derived from it. The star is where a group is joined. ACC = NC(=O)Cc1cc(=O)oc2cc(N*)ccc12", "data": [{"smiles": "CC(C)C[C@H](N)C(=O)N[C@@H](CC(=O)O)C(=O)N[C@H](C(=O)N[C@@H](CCCNC(=N)N)C(=O)N[C@@H](Cc1c[nH]c2ccccc12)C(=O)N[C@@H](CCC(N)=O)C(=O)N[C@@H](Cc1ccc(O)cc1)C(=O)N[C@H](C(=O)N1CCC[C@H]1C(=O)NCC(=O)N[C@@H](CCCCN)C(=O)N[C@@H](Cc1ccccc1)C(=O)N[C@H](C(=O)N[C@H](C(=O)N[C@@H](CCC(N)=O)C(=O)Nc1ccc2c(CC(N)=O)cc(=O)oc2c1)C(C)C)[C@H](C)O)C(C)C)C(C)C", "values": [{"measurement": "Activity", "setting": "[1]", "result": 15.6, "unit": "ng/min"}]}, {"smiles": "CC(C)[C@H](NC(=O)[C@@H](NC(=O)[C@H](Cc1ccccc1)NC(=O)[C@H](CCCCN)NC(=O)CNC(=O)[C@@H]1CCCN1C(=O)[C@@H](NC(=O)[C@H](Cc1ccc(O)cc1)NC(=O)[C@H](CCC(N)=O)NC(=O)[C@H](Cc1c[nH]c2ccccc12)NC(=O)[C@@H](N)CCCNC(=N)N)C(C)C)[C@@H](C)O)C(=O)N[C@@H](CCC(N)=O)C(=O)Nc1ccc2c(CC(N)=O)cc(=O)oc2c1", "note": "(H-RWQYVPGKFTVQ-{ACC})", "values": [{"measurement": "Activity", "setting": "[2]", "result": "inactive"}]}]}
